Test results: US4761408A, “Crystalline aminomethyl compound” (priority 1984, dated 1988)
Converted amounts (≈) assume the structure as drawn.

Columns and labels:
[1] = test system: Streptococcus pyrogenes Aronson 1129; experiment: in vitro MIC; type: cell-based; settings: ARONSON1129
[2] = test system: Escheichia coli 205 R + TEM; experiment: in vitro MIC; type: cell-based; settings: read-out: in vitro MIC
[3] = Determination of the thermal stability (50°, HPLC penem content); type: physicochemical
Method: In order to determine the thermal stability, samples of crystalline (5R,6S)-2-aminomethyl-6-[(1R)-1-hydroxyethyl)-2-penem-3-carboxylic acid and amorphous racemic (5R,6S,1'R and 5S,6R,1'S)-2-aminomethyl-6-(1'-hydroxyethyl)-2-penem-3-carboxylic acid previously known from German Offenlegungsschrift No. 2 950 898 are used.
20 mg samples are weighed in glass tubes. The glass tubes are sealed firmly with PVC stoppers and heated in a thermostatted oil bath at 50°. At regular intervals individual glass tubes are removed from the oil bath, the samples are dissolved in 100 ml of doubly distilled water and the penem content is determined by means of HPLC analysis [UV detector: Kratos, 305 nm; injection machine: Wisp; 20 μl charge; integrator: Shimazu, C-R3A; pump: Altex, 2.0 ml/minute; column: Knauer, 25 cm×4 mm, C18 /10 um; eluant: acetonitrile/water 2:98, pH5].

[4] = test system: Staphylococcus aureus, Escherichia coli or Streptococcus pyogenes; experiment: systemic infection of mice; type: in vivo; settings: sc, parenteral, such as subcutaneous, administration
[5] = stability to the enzyme dehydropeptidase from human kidneys; type: in vitro ADME; settings: kidney dehydropeptidase, read-out: t1/2 (stability to dehydropeptidase) (converted)
From the text: Compounds A and B have the following stability (expressed in half-life periods t1/2) to the enzyme dehydropeptidase from human kidneys: […]

[6] = stability to storage of the solid product; type: physicochemical
[7] = Day 0, 50°, solid in sealed glass tube

With `C[C@@H](O)[C@H]1C(=O)N2C(C(=O)O)=C(CN)S[C@H]12` (relative stereo) [Compound B, (1'R,5R,6S+1'S,5S,6R)-2-aminomethyl-6-(1'-hydroxyethyl)-2-penem-3-carboxylic acid, reference compound] the MIC [1] was 0.5 µg/mL (≈ 2.05 µM), the MIC [2] was 8 µg/mL (≈ 32.8 µM) and the Penem content [3, 7] was “approx. 100%”. The Penem content ([3]; Day 1.8, 50°, 2592 min) was 84%, the Penem content ([3]; Day 3, 50°, 4320 min) was 78% and the Penem content ([3]; Day 4.5, 50°, 6480 min) was 73%. It also gave a Penem content ([3]; Day 7, 50°, 10080 min) of 67%, a Penem content ([3]; Day 9, 50°, 12960 min) of 64% and a Penem content ([3]; Day 12, 50°, 17280 min) of 63%. It also gave a Penem content ([3]; Day 14, 50°, 20160 min) of 62%.

With `C[C@@H](O)[C@H]1C(=O)N2C(C(=O)O)=C(CN)S[C@H]12` [Compound A, (5R,6S)-2-aminomethyl-6-[(1R)-1-hydroxyethyl]-2-penem-3-carboxylic acid] the MIC [1] was 0.2 µg/mL (≈ 0.819 µM), the MIC [2] was 4 µg/mL (≈ 16.4 µM) and the ED50 [4] was 0.3 to 30 mg/kg. The half-life [5] was 6.75 h, the Penem content [3, 7] was “approx. 100%” and the Penem content ([3]; Day 1.8, 50°, 2592 min) was 99%. The Penem content ([3]; Day 3, 50°, 4320 min) was 98%, the Penem content ([3]; Day 4.5, 50°, 6480 min) was 97% and the Penem content ([3]; Day 7, 50°, 10080 min) was 95%. For the same compound, the Penem content ([3]; Day 9, 50°, 12960 min) was 94%, the Penem content ([3]; Day 12, 50°, 17280 min) was 92% and the Penem content ([3]; Day 14, 50°, 20160 min) was 91%. For the same compound, the “absorption of water from the air” value ([6]; approximately normal ambient conditions) was “no tendency to absorb relatively large quantities of water from the air” and the “stability under light, heat and air” value ([6]; relatively long-term action of light, heat (50° C.) and air) was “very stable”.
